Results from patent US6897200B1, “Oligonucleotide delivery systems for camptothecins” (University of Kentucky Research Foundation, priority 1998, dated 2005).

What was measured:
[1] = tested on: dsDNA oligonucleotide d(CGTACG); test: NMR titration / 2D-NOESY of drug with d(CGTACG); details: drug:DNA ratios of 1:1, 2:1 and 3:1
[2] = tested on: dsDNA; test: Relactonization of carboxylate forms in dsDNA solutions (HPLC); details: ~30 mM base dsDNA in PBS, room temperature, after 30 hrs
[3] = tested on: single-strand DNA (ssDNA) (dT)30; test: Lactone stability in the presence of single-strand DNA (HPLC); format: physicochemical; details: ~33 mM base (dT)30; dsDNA 10- to 100-fold more dilute gives approximately equal stabilization
Source text: Note how the presence of DNA markedly stabilizes the biologically-active form of the camptothecins drugs. […] . But it is clear from our work that camptothecin drugs can interact with ssDNA as well as RNA (see FIGS. 4 through 7) and these interactions stabilize the biologically-active lactone forms of these agents.

[4] = tested on: duplex DNA oligonucleotides (dG-dC)15 or (dA-dT)15; test: UV absorption spectra of drug lactone with duplex DNA oligonucleotides; details: for DNA sequence preference (UV and HPLC data): (dG-dC)15 versus (dA-dT)15; for UV spectral change in the presence of DNA: PBS pH 5, 10 μM drug, (dG-dC)15 16 mM base or (dA-dT)15 24 mM base
[5] = tested on: dsDNA oligonucleotide (dG-dC)15; test: Lactone ring hydrolysis in PBS in the presence of (dG-dC)15 (reversed-phase HPLC); details: for % Lactose at Equilibrium: pH 7.4, 10 uM drug; for Lactone levels following three hours of incubation: (dG-dC)15 ~30 mM base, PBS pH 7.4, room temperature
[6] = tested on: dsDNA oligonucleotide (dA-dT)15; test: Lactone ring hydrolysis in PBS in the presence of (dA-dT)15 (reversed-phase HPLC); details: for % Lactose at Equilibrium: pH 7.4, 10 uM drug; for Lactone levels following three hours of incubation: (dA-dT)15 ~30 mM base, PBS pH 7.4, room temperature
[7] = Lactone ring hydrolysis in PBS in the absence of DNA (reversed-phase HPLC); details: for % Lactose at Equilibrium: PBS buffer, pH 7.4, 10 uM drug; for percent lactone at equilibrium: absence of DNA, 10 μM, incubated 3 hours, PBS pH 7.4, room temperature
[8] = tested on: double-stranded DNA (dsDNA); test: Fluorescence emission spectra of SN-38 lactone with DNA; format: binding; details: SN-38 lactone 1 μM, spectra within 2 min
Protocol: FIG. 8 depicts the marked shifting of the fluorescence emission spectra of SN-38 lactone (1 μM final concentration) in the presence of double-stranded DNA (dsDNA). SN38 contains a 10-hydroxy-nctionality which results in the molecule having a fluorescence emission which is highly sensitive to the presence of water in the surrounding microenvironment. […] Note how the agent fluoresces in the 410 nm to 460 nm region when water is not present, but fluoresces at 520 to 530 nm when water is present. […] The fluorophore was directly added to the DNA solution and the spectra recorded immediately (within 2 min.) prior to any significant conversion of the agent to carboxylate form.
To gain mechanistic insight into why the stabilization occurs, fluorescence spectroscopic scans of SN-38 lactone in the presence and absence of DNA were recorded.
Our results thus provide the first evidence that duplex DNA devoid of TopoI may play a functional role in the biological activities of the camptothecin drugs through the promotion of active lactone levels within the cell nucleus. […] The DNA-associated drugs are likely to be in their active lactone forms and ready for the subsequent drug-DNA-enzyme complex formation.

[9] = tested on: RNA (total RNA from yeast); test: Stability of topotecan lactone in the presence of RNA (reversed-phase HPLC); format: physicochemical; details: 1 μM topotecan
Protocol: FIG. 4 depicts the stability of topotecan in the presence of various concentrations of RNA at 22° C. In these experiments, topotecan (at a final concentration of 1 μM) was incubated in PBS, pH 7.4 in the presence of various concentrations of RNA (total RNA from yeast) for 30 min at 22° C. and analyzed for the fraction of lactone present by reversed-phase HPLC. […] As an example, in the presence of 7.5 mg/ml of RNA there exists a 10% greater amount of the lactone form than found in the absence of RNA.
FIG. 5. Stability of topotecan in the presence of various concentrations of RNA at 37° C. Topotecan (1 μM final concentration) was incubated in PBS, pH 7.4 in the presence of various concentrations of RNA (total RNA from yeast) for 30 min at 37° C. and analyzed for the fraction of lactone present by reversed-phase HPLC. At a RNA concentration of 7.5 mg/ml, 12% more of the lactone form of topotecan is present.
(§1) FIG. 6 represents a comparison of the stability of topotecan in the presence and absence of RNA at 22° C. Topotecan (1 μM final concentration) was incubated in PBS, pH 7.4 either alone (filled circles) or in the presence of 10 mg/ml of RNA (open circles) at 22° C. and analyzed for the fraction of lactone present at different times by reversed-phase HPLC.
as §1, with “7” for “6”, “37°” for “22°”, “in the absence” for “alone”

CCc1c2c(nc3ccc(OC(=O)N4CCC(N5CCCCC5)CC4)cc13)-c1cc3c(c(=O)n1C2)COC(=O)[C@]3(O)CC [CPT-11]
drug binding to DNA (2D-NOESY) [1]: clearly consistent with drug binding to DNA | active lactone level after relactonization of pure carboxylate form [2]: ~30% | effect of ssDNA on lactone stabilization (versus dsDNA) [3]: significantly diminished effects on stabilizing | DNA sequence preference (UV and HPLC data) [4]: no signs of any sequence preference | UV spectral change in the presence of DNA [4]: substantial hypochromic and red spectral shift | % Lactose at Equilibrium ([5]; (dG-dC)15, 22 °C): −50% | % Lactose at Equilibrium ([5]; (dG-dC)15, 37 °C): 30 ± 2% | Lactone levels following three hours of incubation [5]: 95% | % Lactose at Equilibrium ([6]; (dA-dT)15, 22 °C): −50% | % Lactose at Equilibrium ([6]; (dA-dT)15, 37 °C): 29 ± 2% | Lactone levels following three hours of incubation [6]: 95% | % Lactose at Equilibrium ([7]; 22 °C): 17 ± 1% | % Lactose at Equilibrium ([7]; 37 °C): 8 ± 2% | percent lactone at equilibrium [7]: 24%

CCc1c2c(nc3ccc(O)cc13)-c1cc3c(c(=O)n1C2)COC(=O)[C@]3(O)CC [SN-38, 7-ethyl-10-hydroxycamptothecin]
direct binding of lactone form to DNA (fluorescence spectral shift) [8]: binds the DNA

CC[C@@]1(O)C(=O)OCc2c1cc1n(c2=O)Cc2cc3c(CN(C)C)c(O)ccc3nc2-1 [TPT, topotecan]
drug binding to DNA (2D-NOESY) [1]: clearly consistent with drug binding to DNA | active lactone level after relactonization of pure carboxylate form [2]: ~30% | effect of ssDNA on lactone stabilization (versus dsDNA) [3]: significantly diminished effects on stabilizing | DNA sequence preference (UV and HPLC data) [4]: sequence preference of (dG-dC)15 over (dA-dT)15 | UV spectral change in the presence of DNA [4]: substantial hypochromic and red spectral shift | % Lactose at Equilibrium ([5]; (dG-dC)15, 22 °C): −50% | % Lactose at Equilibrium ([5]; (dG-dC)15, 37 °C): 26 ± 2% | Lactone levels following three hours of incubation [5]: 95% | greater amount of the lactone form than in the absence of RNA ([9]; 7.5 mg/ml RNA, PBS pH 7.4, 30 min, 22 °C): 10% | more of the lactone form present than without RNA ([9]; 7.5 mg/ml RNA, PBS pH 7.4, 30 min, 37 °C): 12% | more of the lactone form present than without RNA ([9]; 10 mg/ml RNA, PBS pH 7.4, after 3 hrs, 22 °C): 25% | more of the lactone form present than without RNA ([9]; 10 mg/ml RNA, PBS pH 7.4, after 3 hrs, 37 °C): 15% | % Lactose at Equilibrium ([6]; (dA-dT)15, 22 °C): −50% | % Lactose at Equilibrium ([6]; (dA-dT)15, 37 °C): 19 ± 2% | Lactone levels following three hours of incubation [6]: 78% | % Lactose at Equilibrium ([7]; 22 °C): 15 ± 1% | % Lactose at Equilibrium ([7]; 37 °C): 10 ± 1% | percent lactone at equilibrium [7]: 12%

CC[C@@]1(O)C(=O)OCc2c1cc1n(c2=O)Cc2cc3ccccc3nc2-1 [camptothecin]
Lactone levels following three hours of incubation [5]: above 80%
